Assay results: ChEMBL document CHEMBL5291721, “A preclinical secondary pharmacology resource illuminates target-adverse drug reaction associations of marketed drugs” (Nat Commun, 2023)

Tests used:
[1] = target: Beta-1 adrenergic receptor (Homo sapiens, UniProt P08588); type: functional
[2] = target: Vasopressin V1a receptor (Homo sapiens, UniProt P37288)
[3] = target: Vasopressin V2 receptor (Homo sapiens, UniProt P30518)
[4] = target: Muscarinic acetylcholine receptor M3 (Homo sapiens, UniProt P20309)
Sequence of Muscarinic acetylcholine receptor M3 (P20309 whole entry): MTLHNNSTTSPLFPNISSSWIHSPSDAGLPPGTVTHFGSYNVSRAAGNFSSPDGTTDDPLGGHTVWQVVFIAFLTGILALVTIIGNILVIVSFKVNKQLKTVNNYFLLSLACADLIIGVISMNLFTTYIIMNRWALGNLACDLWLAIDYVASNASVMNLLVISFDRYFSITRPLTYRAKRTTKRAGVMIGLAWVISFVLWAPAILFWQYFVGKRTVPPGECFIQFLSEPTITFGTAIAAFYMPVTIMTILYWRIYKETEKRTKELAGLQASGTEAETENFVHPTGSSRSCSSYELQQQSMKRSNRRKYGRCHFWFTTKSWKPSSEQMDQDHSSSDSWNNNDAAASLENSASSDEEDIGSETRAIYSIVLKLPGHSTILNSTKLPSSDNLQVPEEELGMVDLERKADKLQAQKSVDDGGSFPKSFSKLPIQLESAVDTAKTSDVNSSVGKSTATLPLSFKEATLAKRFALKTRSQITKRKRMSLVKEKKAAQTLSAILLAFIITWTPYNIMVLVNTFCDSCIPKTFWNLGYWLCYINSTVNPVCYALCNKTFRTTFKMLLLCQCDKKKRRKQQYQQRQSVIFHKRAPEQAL

[5] = target: T1, Cannabinoid receptor 1 (Homo sapiens, UniProt P21554); type: functional, cell-based
T1 sequence (P21554 whole entry): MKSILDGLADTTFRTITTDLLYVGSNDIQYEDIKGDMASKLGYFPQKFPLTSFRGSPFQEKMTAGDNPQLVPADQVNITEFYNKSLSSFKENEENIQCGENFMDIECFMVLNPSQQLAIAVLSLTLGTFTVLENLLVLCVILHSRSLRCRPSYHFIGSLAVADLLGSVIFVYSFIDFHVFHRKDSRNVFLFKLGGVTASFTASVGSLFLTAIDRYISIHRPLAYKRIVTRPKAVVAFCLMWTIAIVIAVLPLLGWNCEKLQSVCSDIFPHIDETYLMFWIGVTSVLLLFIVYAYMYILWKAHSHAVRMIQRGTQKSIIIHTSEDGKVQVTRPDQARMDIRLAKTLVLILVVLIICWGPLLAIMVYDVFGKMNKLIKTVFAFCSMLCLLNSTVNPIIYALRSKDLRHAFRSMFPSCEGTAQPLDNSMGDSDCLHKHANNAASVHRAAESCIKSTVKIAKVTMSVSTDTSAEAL

[6] = target: T1, Cannabinoid receptor 1
[7] = target: Glutamate receptor ionotropic, NMDA 1 (Rattus norvegicus, UniProt P35439)
[8] = target: 5-hydroxytryptamine receptor 2A (Homo sapiens, UniProt P28223); type: functional, cell-based
Sequence of 5-hydroxytryptamine receptor 2A (P28223 whole entry): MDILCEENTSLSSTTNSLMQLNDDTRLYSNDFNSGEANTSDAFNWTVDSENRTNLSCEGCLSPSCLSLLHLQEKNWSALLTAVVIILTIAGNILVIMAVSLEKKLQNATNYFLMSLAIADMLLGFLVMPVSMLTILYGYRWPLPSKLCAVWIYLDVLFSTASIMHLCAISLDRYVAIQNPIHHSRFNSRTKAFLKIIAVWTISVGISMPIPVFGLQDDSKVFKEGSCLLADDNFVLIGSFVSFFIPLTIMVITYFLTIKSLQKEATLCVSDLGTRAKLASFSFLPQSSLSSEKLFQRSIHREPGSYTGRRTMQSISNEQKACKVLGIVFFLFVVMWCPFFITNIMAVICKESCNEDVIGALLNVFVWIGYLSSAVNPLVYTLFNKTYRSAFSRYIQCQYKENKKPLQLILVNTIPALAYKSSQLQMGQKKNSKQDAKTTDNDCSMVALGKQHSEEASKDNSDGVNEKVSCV

[9] = target: Kappa-type opioid receptor (Homo sapiens, UniProt P41145)
Sequence of Kappa-type opioid receptor (P41145 whole entry): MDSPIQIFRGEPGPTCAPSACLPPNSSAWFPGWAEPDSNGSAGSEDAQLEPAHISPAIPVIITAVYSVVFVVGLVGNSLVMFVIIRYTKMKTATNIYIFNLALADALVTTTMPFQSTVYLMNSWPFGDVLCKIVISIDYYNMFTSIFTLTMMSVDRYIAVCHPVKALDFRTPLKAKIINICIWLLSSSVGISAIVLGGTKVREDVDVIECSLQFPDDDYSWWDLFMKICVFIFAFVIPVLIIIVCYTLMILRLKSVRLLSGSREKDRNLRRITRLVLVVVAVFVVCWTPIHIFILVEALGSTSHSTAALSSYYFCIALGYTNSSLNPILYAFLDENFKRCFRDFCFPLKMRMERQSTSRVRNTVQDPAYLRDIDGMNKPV

[10] = target: T2, Mu-type opioid receptor (Homo sapiens, UniProt P35372); assay: biochemical; type: functional
T2 sequence (P35372 whole entry): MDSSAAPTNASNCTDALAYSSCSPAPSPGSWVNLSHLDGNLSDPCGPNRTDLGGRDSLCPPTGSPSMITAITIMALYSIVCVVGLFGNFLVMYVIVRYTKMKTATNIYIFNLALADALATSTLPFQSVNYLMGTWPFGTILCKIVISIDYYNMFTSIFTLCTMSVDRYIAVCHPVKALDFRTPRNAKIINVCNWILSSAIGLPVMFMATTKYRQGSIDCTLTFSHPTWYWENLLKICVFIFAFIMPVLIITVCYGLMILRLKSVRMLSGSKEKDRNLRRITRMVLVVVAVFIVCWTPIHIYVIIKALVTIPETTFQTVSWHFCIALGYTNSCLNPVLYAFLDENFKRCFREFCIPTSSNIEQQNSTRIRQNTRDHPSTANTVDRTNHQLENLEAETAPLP

[11] = target: T3, Thromboxane A2 receptor (Homo sapiens, UniProt P21731)
T3 sequence (P21731 whole entry): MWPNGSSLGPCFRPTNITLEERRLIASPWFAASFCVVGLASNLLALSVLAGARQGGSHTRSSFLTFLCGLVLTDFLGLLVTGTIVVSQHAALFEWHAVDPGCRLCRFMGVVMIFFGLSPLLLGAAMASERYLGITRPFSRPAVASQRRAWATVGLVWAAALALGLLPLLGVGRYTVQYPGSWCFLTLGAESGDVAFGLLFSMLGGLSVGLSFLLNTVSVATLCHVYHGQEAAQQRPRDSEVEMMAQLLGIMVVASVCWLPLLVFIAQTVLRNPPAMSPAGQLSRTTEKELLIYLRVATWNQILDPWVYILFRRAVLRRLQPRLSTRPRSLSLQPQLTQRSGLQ

[12] = target: Sodium-dependent serotonin transporter (Homo sapiens, UniProt P31645)
Sequence of Sodium-dependent serotonin transporter (P31645 whole entry): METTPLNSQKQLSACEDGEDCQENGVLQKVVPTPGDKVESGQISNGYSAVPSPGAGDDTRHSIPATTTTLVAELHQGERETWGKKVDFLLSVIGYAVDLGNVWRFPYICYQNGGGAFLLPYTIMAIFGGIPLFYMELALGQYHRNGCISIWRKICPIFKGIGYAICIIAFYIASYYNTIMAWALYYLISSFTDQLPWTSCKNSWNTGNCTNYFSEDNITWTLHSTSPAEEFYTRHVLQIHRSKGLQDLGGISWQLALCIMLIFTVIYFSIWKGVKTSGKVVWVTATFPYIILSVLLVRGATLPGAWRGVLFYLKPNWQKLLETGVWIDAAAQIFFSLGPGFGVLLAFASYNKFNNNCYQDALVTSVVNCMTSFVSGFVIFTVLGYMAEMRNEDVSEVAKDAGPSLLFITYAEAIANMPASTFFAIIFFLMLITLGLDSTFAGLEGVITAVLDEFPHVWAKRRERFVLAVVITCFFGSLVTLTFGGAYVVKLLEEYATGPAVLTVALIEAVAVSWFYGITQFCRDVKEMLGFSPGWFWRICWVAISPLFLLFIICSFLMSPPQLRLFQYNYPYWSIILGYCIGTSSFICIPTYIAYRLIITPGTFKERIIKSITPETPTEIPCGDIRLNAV

[13] = target: T4, Estrogen receptor (Homo sapiens, UniProt P03372)
T4 sequence (P03372 whole entry): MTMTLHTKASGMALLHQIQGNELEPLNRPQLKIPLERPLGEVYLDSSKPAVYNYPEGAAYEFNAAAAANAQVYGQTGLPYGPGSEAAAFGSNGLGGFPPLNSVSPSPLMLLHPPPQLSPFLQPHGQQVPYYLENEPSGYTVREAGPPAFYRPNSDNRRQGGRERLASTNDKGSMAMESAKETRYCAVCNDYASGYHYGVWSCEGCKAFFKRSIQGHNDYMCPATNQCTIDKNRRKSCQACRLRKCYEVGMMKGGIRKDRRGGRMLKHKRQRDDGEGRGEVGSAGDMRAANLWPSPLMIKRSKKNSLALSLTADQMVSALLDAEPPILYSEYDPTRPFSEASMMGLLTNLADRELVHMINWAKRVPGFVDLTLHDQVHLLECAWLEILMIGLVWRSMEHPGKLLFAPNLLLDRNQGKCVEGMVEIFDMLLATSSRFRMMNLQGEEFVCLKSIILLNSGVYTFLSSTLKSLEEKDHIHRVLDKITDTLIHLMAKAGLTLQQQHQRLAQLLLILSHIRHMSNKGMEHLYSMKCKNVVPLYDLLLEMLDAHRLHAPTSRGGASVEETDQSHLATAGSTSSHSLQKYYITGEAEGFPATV

[14] = target: 5-hydroxytryptamine receptor 2B (Homo sapiens, UniProt P41595); type: functional, cell-based
Sequence of 5-hydroxytryptamine receptor 2B (P41595 whole entry): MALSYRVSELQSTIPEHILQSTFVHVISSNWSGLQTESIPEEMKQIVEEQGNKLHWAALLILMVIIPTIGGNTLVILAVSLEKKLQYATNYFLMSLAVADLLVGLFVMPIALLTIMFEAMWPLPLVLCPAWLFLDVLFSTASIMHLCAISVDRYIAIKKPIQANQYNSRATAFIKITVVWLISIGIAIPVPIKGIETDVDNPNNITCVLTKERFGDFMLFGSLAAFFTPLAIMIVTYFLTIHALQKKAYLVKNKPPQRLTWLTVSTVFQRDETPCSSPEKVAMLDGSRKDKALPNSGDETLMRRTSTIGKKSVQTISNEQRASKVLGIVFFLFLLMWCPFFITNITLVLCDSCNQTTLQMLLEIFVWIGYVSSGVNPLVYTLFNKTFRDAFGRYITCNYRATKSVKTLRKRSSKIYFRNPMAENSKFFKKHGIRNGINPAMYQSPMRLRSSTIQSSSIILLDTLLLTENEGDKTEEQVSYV

[15] = target: Acetylcholinesterase (Homo sapiens, UniProt P22303); type: functional
[16] = target: T5, Alpha-2A adrenergic receptor (Homo sapiens, UniProt P08913)
T5 sequence (P08913 whole entry): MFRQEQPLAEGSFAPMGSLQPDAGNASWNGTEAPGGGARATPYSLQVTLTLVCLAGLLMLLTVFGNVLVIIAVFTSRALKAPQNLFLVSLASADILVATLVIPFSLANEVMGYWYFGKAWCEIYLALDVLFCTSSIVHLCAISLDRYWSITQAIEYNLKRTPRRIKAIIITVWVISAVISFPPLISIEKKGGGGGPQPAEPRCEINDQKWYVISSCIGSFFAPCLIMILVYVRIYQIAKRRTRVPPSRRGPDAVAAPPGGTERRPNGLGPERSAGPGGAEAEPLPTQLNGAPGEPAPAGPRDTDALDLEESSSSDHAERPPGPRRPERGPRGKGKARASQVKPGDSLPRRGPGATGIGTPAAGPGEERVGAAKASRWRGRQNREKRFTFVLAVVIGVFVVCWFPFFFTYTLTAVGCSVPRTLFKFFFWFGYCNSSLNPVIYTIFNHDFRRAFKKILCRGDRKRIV

[17] = target: D(1A) dopamine receptor (Homo sapiens, UniProt P21728)
[18] = target: D(3) dopamine receptor (Homo sapiens, UniProt P35462)
[19] = target: T2, Mu-type opioid receptor
[20] = target: Prostaglandin G/H synthase 1 (Homo sapiens, UniProt P23219); type: functional
Also: assay procedure not described here.

Sequence of Vasopressin V2 receptor (P30518 whole entry): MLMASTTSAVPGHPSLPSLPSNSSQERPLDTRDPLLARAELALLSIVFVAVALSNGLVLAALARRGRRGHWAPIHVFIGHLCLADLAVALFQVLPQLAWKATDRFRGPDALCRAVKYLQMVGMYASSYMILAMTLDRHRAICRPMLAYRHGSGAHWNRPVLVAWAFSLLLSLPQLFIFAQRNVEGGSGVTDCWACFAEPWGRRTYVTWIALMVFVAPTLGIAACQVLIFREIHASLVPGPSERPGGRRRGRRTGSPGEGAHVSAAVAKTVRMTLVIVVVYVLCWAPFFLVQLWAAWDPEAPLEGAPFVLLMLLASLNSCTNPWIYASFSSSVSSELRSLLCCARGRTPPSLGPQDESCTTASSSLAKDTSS
Sequence of Vasopressin V1a receptor (P37288 whole entry): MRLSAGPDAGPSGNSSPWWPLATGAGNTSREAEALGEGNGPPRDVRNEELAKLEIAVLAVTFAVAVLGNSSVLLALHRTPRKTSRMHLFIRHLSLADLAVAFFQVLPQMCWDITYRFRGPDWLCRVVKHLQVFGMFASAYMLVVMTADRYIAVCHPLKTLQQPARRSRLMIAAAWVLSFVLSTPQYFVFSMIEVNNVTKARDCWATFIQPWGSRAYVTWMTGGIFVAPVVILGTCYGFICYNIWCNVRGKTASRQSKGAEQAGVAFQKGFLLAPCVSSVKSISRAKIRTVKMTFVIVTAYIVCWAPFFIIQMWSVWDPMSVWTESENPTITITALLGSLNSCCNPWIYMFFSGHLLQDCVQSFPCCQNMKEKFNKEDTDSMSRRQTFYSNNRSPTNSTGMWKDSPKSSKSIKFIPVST
Sequence of Beta-1 adrenergic receptor (P08588 whole entry): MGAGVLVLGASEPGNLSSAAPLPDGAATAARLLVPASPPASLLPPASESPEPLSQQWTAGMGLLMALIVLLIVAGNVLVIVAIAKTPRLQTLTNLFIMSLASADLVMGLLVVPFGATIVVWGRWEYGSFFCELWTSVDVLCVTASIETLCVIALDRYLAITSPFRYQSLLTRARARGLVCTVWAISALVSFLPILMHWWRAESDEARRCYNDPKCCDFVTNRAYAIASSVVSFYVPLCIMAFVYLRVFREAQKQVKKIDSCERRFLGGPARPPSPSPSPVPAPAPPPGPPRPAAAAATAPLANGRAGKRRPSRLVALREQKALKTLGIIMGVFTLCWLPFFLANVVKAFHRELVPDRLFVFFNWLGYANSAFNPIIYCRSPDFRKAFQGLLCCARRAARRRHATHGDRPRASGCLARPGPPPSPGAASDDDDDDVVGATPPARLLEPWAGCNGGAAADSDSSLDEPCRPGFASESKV

| SMILES | AC50 [1] [µM] | AC50 [2] [µM] | AC50 [3] [µM] | AC50 [4] [µM] | AC50 [5] [µM] | AC50 [6] [µM] | AC50 [7] [µM] | AC50 [8] [µM] | AC50 [9] [µM] | AC50 [10] [µM] | AC50 [11] [µM] | AC50 [12] [µM] | AC50 [13] [µM] | AC50 [14] [µM] | AC50 [15] [µM] | AC50 [16] [µM] | AC50 [17] [µM] | AC50 [18] [µM] | AC50 [19] [µM] | AC50 [20] [µM] |
| --- | --- | --- | --- | --- | --- | --- | --- | --- | --- | --- | --- | --- | --- | --- | --- | --- | --- | --- | --- | --- |
| CO/N=C(\C(=O)N[C@@H]1C(=O)N2C(C(=O)[O-])=C(C[N+]3(C)CCCC3)CS[C@H]12)c1csc(N)n1 | > 300 | > 300 | > 30 | > 300 | > 300 | > 30 | > 30 | > 300 | > 30 | > 30 | > 30 | > 300 | – | – | – | – | – | – | – | – |
| COC(=O)N[C@H](C(=O)N1CCC[C@H]1c1nc(-c2ccc(-c3ccc(-c4c[nH]c([C@@H]5CCCN5C(=O)[C@@H](NC(=O)OC)C(C)C)n4)cc3)cc2)c[nH]1)C(C)C | > 30 | > 30 | > 30 | > 30 | – | > 30 | > 30 | > 30 | 4.1 | > 30 | > 30 | > 30 | – | – | – | – | – | – | – | – |
| COC(=O)N[C@H](C(=O)N[C@@H](Cc1ccccc1)[C@@H](O)CN(Cc1ccc(-c2ccccn2)cc1)NC(=O)[C@@H](NC(=O)OC)C(C)(C)C)C(C)(C)C [ATAZANAVIR] | > 10 | > 30 | > 30 | > 30 | – | > 10 | > 10 | > 10 | 1.06 | – | > 30 | > 30 | – | – | – | – | – | – | – | – |
| CC(C)NCC(O)COc1ccc(COCCOC(C)C)cc1 (configuration not stated) [BISOPROLOL] | – | > 10 | > 30 | > 30 | – | > 10 | > 10 | > 30 | > 10 | > 30 | > 30 | > 10 | – | – | – | – | – | – | – | – |
| CC(=O)OCC(=O)[C@@]1(O)CC[C@H]2[C@@H]3CCC4=CC(=O)CC[C@]4(C)[C@H]3C(=O)C[C@@]21C [CORTISONE ACETATE] | – | – | – | – | > 30 | – | > 30 | – | > 30 | – | – | – | > 30 | > 30 | – | – | – | – | – | – |
| COC(=O)[C@@H]1CC2=CC(=O)CC[C@]2(C)[C@@]23O[C@@H]2C[C@@]2(C)[C@@H](CC[C@@]24CCC(=O)O4)[C@H]13 [EPLERENONE] | > 30 | > 30 | > 30 | > 30 | > 30 | > 10 | > 10 | > 30 | > 10 | – | > 30 | > 30 | – | – | – | – | – | – | – | – |
| CCC(=O)O[C@H]1[C@H](O[C@@H]2[C@@H](C)[C@H](O[C@H]3C[C@@](C)(OC)[C@@H](O)[C@H](C)O3)[C@@H](C)C(=O)O[C@H](CC)[C@@](C)(O)[C@H](O)[C@@H](C)C(=O)[C@H](C)C[C@@]2(C)O)O[C@H](C)C[C@@H]1N(C)C [ERYTHROMYCIN PROPIONATE] | – | – | – | – | – | – | – | – | – | – | – | – | > 30 | > 30 | > 30 | > 30 | > 30 | 12.9 | 16.2 | > 30 |
| C[C@@H]1O[C@@H]1P(=O)(O)O [FOSFOMYCIN] | > 10 | > 10 | > 10 | > 30 | – | > 10 | > 10 | > 10 | > 10 | – | > 10 | > 10 | – | – | – | – | – | – | – | – |
| COc1ccc2c(c1)C(=O)N(CCc1ccc(S(=O)(=O)NC(=O)NC3CCCCC3)cc1)C(=O)C2(C)C [GLIQUIDONE] | > 30 | > 30 | > 30 | > 30 | – | > 30 | > 30 | > 30 | > 30 | > 30 | 11 | > 30 | – | – | – | – | – | – | – | – |
| CN1C(=O)CC(C)(c2ccccc2)C1=O (configuration not stated) [METHSUXIMIDE] | > 10 | > 10 | > 10 | > 30 | – | > 10 | > 10 | > 10 | > 10 | > 30 | > 10 | > 10 | – | – | – | – | – | – | – | – |
| C[C@H]1C[C@@H]2[C@H]([C@@H](O)C[C@@]3(C)[C@H]2CC[C@]3(O)C(=O)CO)[C@@]2(C)C=CC(=O)C=C12 [METHYLPREDNISOLONE] | > 10 | – | > 10 | – | – | > 10 | > 10 | – | > 10 | > 30 | > 10 | – | – | – | – | – | – | – | – | – |
| Cc1cc2c(cc1CC(=O)c1sccc1S(=O)(=O)Nc1onc(C)c1Cl)OCO2 [SITAXENTAN] | – | – | – | – | – | – | – | – | – | – | – | – | > 30 | > 30 | > 30 | > 30 | > 30 | > 30 | > 30 | > 30 |
| CC(C(=O)O)c1ccc(C(=O)c2cccs2)cc1 (configuration not stated) [SUPROFEN] | – | > 10 | > 10 | > 30 | – | > 10 | > 10 | > 10 | > 10 | – | > 10 | > 10 | – | – | – | – | – | – | – | – |
| Cc1ccc(C(=O)c2cc(O)c(O)c([N+](=O)[O-])c2)cc1 [TOLCAPONE] | > 10 | > 10 | > 10 | > 30 | – | > 10 | > 10 | > 10 | > 10 | – | > 10 | > 30 | – | – | – | – | – | – | – | – |
| NC[C@H]1CC[C@H](C(=O)O)CC1 [TRANEXAMIC ACID] | > 10 | – | > 10 | – | – | > 10 | > 10 | – | > 10 | > 30 | > 10 | – | – | – | – | – | – | – | – | – |
| O=C(CCCCCCC(=O)Nc1ccccc1)NO [VORINOSTAT] | > 30 | > 30 | > 30 | > 30 | > 30 | > 10 | > 30 | > 30 | > 30 | > 30 | > 30 | > 30 | – | – | – | – | – | – | – | – |
